{
  "source": "patent US20050221406A1",
  "about": "“Method, composition and device for treating starch related diseases” (priority 2004, published 2005)",
  "key": {"[1]": {"conditions": "trial (i): 300 mg sodium bicarbonate per kg of body mass, 100 min before exercise; fourteen healthy male volunteers; differs from placebo and no ingestion (P<0.05)", "protocol": "A double-blind protocol was used between the (i) and (ii) trials. […] Each condition was repeated so that the volunteers underwent treadmill exercise for six times. 100 minutes before commencing treadmill exercise was allowed after ingesting substances in (i), (ii) and (iii). The volunteers exercised until fatigue. Fourteen of the volunteers completed all the tests.\nA double-blind protocol was used between the (i) and (ii) trials. […] Each condition was repeated so that the volunteers underwent treadmill exercise for six times. 100 min before commencing treadmill exercise was allowed after ingesting substances in (i), (ii) and (iii). The volunteers exercised until fatigue.\nResults: Fourteen of the volunteers completed all the tests. […] The data were analyzed using a two-way ANOVA with replicates and Tukey tests."}, "[2]": {"conditions": "Wilkes and co-workers, cited from earlier work"}, "[3]": {"conditions": "four 1-minute maximal sprints at 125%, fifth interval to exhaustion; ingestion prior to exercise; cited from earlier work"}, "[4]": {"conditions": "running at intensity corresponding to blood lactate of 4 mM, sustained approximately 30 minutes; cited from earlier work"}, "[5]": {"conditions": "100, 150, and 200 mg NaHCO3/kg body weight; 2-minute maximal exercise bout; cited from earlier work"}, "[6]": {"conditions": "venous blood; typical time course; cited from earlier work"}, "[7]": {"assay": "Blood glucose readings, Type I diabetic patient (Tables 1 and 2)", "assay_type": "in vivo, human", "conditions": "Table 1, one week before starting treatment, insulin 30 iu twice a day, daily readings Mon-Sun", "description": "The patient started using the first method of treatment (day and night), then changed to the 3rd method after 2 weeks of treatment, carried n with it continuously.\nThe patient was on 30 iu of insulin twice a day (60 iu/day) regardless of any reading of their glucose levels. […] After 4 weeks of continuous treatment with P.I.R.T (treatment method number three), their insulin does was reduced to 10 iu in the morning and 20 iu in the evening (30 iu per day)."}},
  "note": "Several values for one entry are separate records, joined by “and”; a condition that tells them apart may be missing. Equal entries are not always repeated.",
  "data": [
    {"compound": "O=C([O-])O.[Na+]", "note": "[sodium bicarbonate]", "values": [
      {"measurement": "average time, treadmill exercise until fatigue", "setting": "[1]", "value": 4.01, "unit": "s"},
      {"measurement": "decrease in 800 m running time", "setting": "[2]", "value": "~3", "unit": "s"},
      {"measurement": "distance equivalent of the decrease in 800 m running time", "setting": "[2]; estimated", "value": "approximately 19 m"},
      {"measurement": "increase of exercise duration of the final bout", "setting": "[3]", "value": 42, "unit": "%"},
      {"measurement": "effect on time to exhaustion", "setting": "[4]", "value": "no effect"},
      {"measurement": "effect on power output", "setting": "[5]", "value": "no significant increase"},
      {"measurement": "time of maximal rise in pH bicarbonate ion concentration after ingestion", "setting": "[6]", "value": "about 1.5 hours"},
      {"measurement": "time pH bicarbonate ion concentration remains elevated after ingestion", "setting": "[6]", "value": "at least 2 hours"}
    ]},
    {"compound": "insulin", "values": [
      {"measurement": "Pre tea BG", "setting": "[7]", "value": "23.1 mM and 26.2 mM and 18.4 mM and 22.2 mM and 19.5 mM and 19.9 mM and 17.4 mM"}
    ]}
  ]
}
